These are literature values, as cited in patent US20040158054A1, “Di-ribonucleotides as specific viral RNA-polymerase inhibitors for the treatment or prevention of viral infections” (priority 2003, published 2004).

Series [1] relates to 6-mercaptopurine-resistant cancer cell lines.

For the compound `O=P(O)(OC[C@H]1O[C@@H](n2cnc3c(=S)[nH]cnc32)[C@H](O)[C@@H]1O)OC[C@H]1O[C@@H](n2cnc3c(=S)nc[nH]c32)[C@H](O)[C@@H]1O` [bis(thioinosine)-5′,5′-phosphate], in series [1], the “inhibition of 6-mercaptopurine-resistant cancer cell lines” value is “inhibit”. Moreover, the “fold more potent against neoplastic cells than 6-MP” value with neoplastic cells (relative to 6-MP) is given as 240 fold. Moreover, the “fold more potent against neoplastic cells than 6-MP riboside” value in the series on neoplastic cells (relative to 6-MP riboside) is listed as 25 fold.
